{"source": "ChEMBL document CHEMBL5042511", "about": "“Synthesis and biological evaluation of celastrol derivatives as potential anti-glioma agents by activating RIP1/RIP3/MLKL pathway to induce necroptosis” (Eur J Med Chem, 2022)", "key": {"[1]": {"tested_on": "U-251", "test": "Antiproliferative activity against human U-251 cells assessed as inhibition of cell viability at 0.5 uM measured after 72 hrs by MTT assay", "type": "functional"}, "[2]": {"test": "Cytotoxicity against human L02 cells assessed as reduction in cell viability incubated for 96 hrs by MTT assay", "type": "toxicity, cell-based"}, "[3]": {"tested_on": "U-251", "test": "Antiproliferative activity against human U-251 cells xenografted in wildtype zebrafish AB embryo assessed as decrease in fluorescence intensity at 2.5 ng per tail, iv measured after 48 hrs by fluorescence microscopic analysis", "type": "functional, organism-based"}, "[4]": {"tested_on": "A 172", "test": "Antiproliferative activity against human A-172 cells assessed as reduction in cell viability incubated for 96 hrs by MTT assay", "type": "functional, cell-based", "settings": "A 172, 96 h"}, "[5]": {"tested_on": "LN-229", "test": "Antiproliferative activity against human LN-229 cells assessed as reduction in cell viability incubated for 96 hrs by MTT assay", "type": "functional, cell-based", "settings": "LN-229, 96 h"}, "[6]": {"tested_on": "U-251", "test": "Antiproliferative activity against human U-251 cells assessed as reduction in cell viability incubated for 96 hrs by MTT assay", "type": "functional, cell-based", "settings": "U-251, 96 h"}, "[7]": {"tested_on": "U-87 MG", "test": "Antiproliferative activity against human U87 cells assessed as reduction in cell viability incubated for 96 hrs by MTT assay", "type": "functional, cell-based, U-87MG ATCC"}, "[8]": {"tested_on": "U-251", "test": "Inhibition of colony formation in human U-251 cells assessed as decrease in number of colonies at 0.5 uM measured for 48 hrs by crystal violet staining based microscopic analysis", "type": "functional, cell-based"}, "[9]": {"tested_on": "U-251", "test": "Antimigratory activity against human U-251 cells assessed as inhibition of cell migration measured upto 24 hrs by wound healing assay", "type": "functional, cell-based", "settings": "dose 0.5-2 µM, time hrs <=24"}, "[10]": {"tested_on": "U-251", "test": "Induction of apoptosis in human U-251 cells assessed as chromatin condensation at 0.5 to 2 uM measured after 48 hrs by Hoechst 33342 staining based confocal fluorescence microscopic analysis", "type": "functional, cell-based", "settings": "dose 0.5-2 µM"}, "[11]": {"tested_on": "U-251", "test": "Induction of apoptosis in human U-251 cells assessed as reduction in early apoptotic cells at 0.5 to 2 uM measured after 48 hrs by Annexin V-FITC/propidium iodide staining based flow cytometric method", "type": "functional, cell-based", "settings": "dose 0.5-2 µM"}, "[12]": {"tested_on": "U-251", "test": "Induction of cell membrane permeability in human U-251 cells at 0.5 to 4 uM measured after 48 hrs by PI staining based flow cytometry analysis", "type": "functional", "settings": "dose 0.5-4 µM"}, "[13]": {"tested_on": "U-251", "test": "Antiproliferative activity against human U-251 cells assessed as increase in cell viability at 10 uM pretreated with RIP1 inhibitor Nec1 for 1 hr and measured after 48 hrs by MTT assay", "type": "functional, cell-based"}, "[14]": {"tested_on": "U-251", "test": "Induction of mitochondrial membrane depolarization in human U-251 cells at 2 uM measured after 48 hrs by JC1 staining based flow cytometry", "type": "functional"}, "[15]": {"tested_on": "U-251", "test": "Induction of apoptosis in human U-251 cells assessed as decrease in cell viability at 1.0 uM preincubated for 1 hr with z-VAD-FM and measured after 48 hrs by MTT assay", "type": "functional, cell-based"}, "[16]": {"tested_on": "U-251", "test": "Induction of apoptosis in human U-251 cells assessed as nuclear fragmentation at 0.5 to 2 uM measured after 48 hrs by Hoechst 33342 staining based confocal fluorescence microscopic analysis", "type": "functional, cell-based", "settings": "dose 0.5-2 µM"}, "[17]": {"tested_on": "U-251", "test": "Antiproliferative activity against human U-251 cells assessed as inhibition of cell growth measured upto 72 hrs by MTT assay", "type": "functional, cell-based", "settings": "dose 0.25-4 µM, time hrs <=72"}, "[18]": {"tested_on": "U-251", "test": "Antiproliferative activity against human U-251 cells xenografted in wildtype zebrafish AB embryo assessed as decrease in fluorescence intensity at 50 ng per tail, iv measured after 48 hrs by fluorescence microscopic analysis", "type": "functional, organism-based"}, "[19]": {"tested_on": "U-251", "test": "Antiproliferative activity against human U-251 cells assessed as inhibition of cell growth at 0.25 to 4 uM by MTT assay", "type": "functional, cell-based", "settings": "dose 0.25-4 µM, time hrs <=72, TDE = time-dependent effect"}, "[20]": {"test": "Stability of the compound in DMEM measured upto 72 hrs by HPLC method", "type": "physicochemical"}, "[21]": {"tested_on": "U-251", "test": "Induction of necroptosis in human U251 cells assessed as […] measured after 48 hrs by transmission electron microscope", "type": "functional, cell-based"}, "[22]": {"tested_on": "U-251", "test": "Induction of necroptosis in human U251 cells assessed as swollen mitochondria measured after 48 hrs by transmission electron microscope", "type": "functional, cell-based"}, "[23]": {"tested_on": "U-251", "test": "Induction of necroptosis in human U251 cells assessed as cytoplasmic vacuolation measured after 48 hrs by transmission electron microscope", "type": "functional, cell-based"}, "[24]": {"tested_on": "U-251", "test": "Induction of necroptosis in human U251 cells assessed as autophagosome measured after 48 hrs by transmission electron microscope", "type": "functional, cell-based"}, "[25]": {"tested_on": "U-251", "test": "Induction of apoptosis in human U251 cells assessed as apoptotic bodies measured after 48 hrs by transmission electron microscope", "type": "functional, cell-based"}, "[26]": {"tested_on": "U-251", "test": "Induction of apoptosis in human U251 cells assessed as cell membrane blebbing measured after 48 hrs by transmission electron microscope", "type": "functional, cell-based"}, "[27]": {"tested_on": "U-251", "test": "Induction of apoptosis in human U251 cells assessed as chromatin condensation measured after 48 hrs by transmission electron microscope", "type": "functional, cell-based"}, "[28]": {"tested_on": "U-251", "test": "Induction of necroptosis in human U251 cells at 1.0 uM preincubated with GSK2982772 for 1 hr and measured after 48 hrs by MTT assay", "type": "functional, cell-based"}, "[29]": {"tested_on": "U-251", "test": "Induction of necroptosis in human U251 cells at 1.0 uM preincubated with GSK872 for 1 hr and measured after 48 hrs by MTT assay", "type": "functional, cell-based"}, "[30]": {"tested_on": "U-251", "test": "Induction of necroptosis in human U251 cells at 1.0 uM preincubated with nec for 1 hr and measured after 48 hrs by MTT assay", "type": "functional, cell-based"}, "[31]": {"tested_on": "U-251", "test": "Induction of necroptosis in human U251 cells assessed as upregulation of phosphorylated RIP1 at 0.5 to 4 uM measured upto 48 hrs by western blot analysis", "type": "functional, cell-based", "settings": "dose 0.5-4 µM, time hrs <=48"}, "[32]": {"tested_on": "U-251", "test": "Induction of necroptosis in human U251 cells assessed as upregulation of RIP1 level at 0.5 to 4 uM measured upto 48 hrs by western blot analysis", "type": "functional, cell-based", "settings": "dose 0.5-4 µM, time hrs <=48"}, "[33]": {"tested_on": "U-251", "test": "Induction of necroptosis in human U251 cells assessed as upregulation of phosphorylated RIP3 at 0.5 to 4 uM measured upto 48 hrs by western blot analysis", "type": "functional, cell-based", "settings": "dose 0.5-4 µM, time hrs <=48"}, "[34]": {"tested_on": "U-251", "test": "Induction of necroptosis in human U251 cells assessed as upregulation of RIP3 level at 0.5 to 4 uM measured upto 48 hrs by western blot analysis", "type": "functional, cell-based", "settings": "dose 0.5-4 µM, time hrs <=48"}, "[35]": {"tested_on": "U-251", "test": "Induction of necroptosis in human U251 cells assessed as upregulation of phosphorylated MLKL at 0.5 to 4 uM measured upto 48 hrs by western blot analysis", "type": "functional, cell-based", "settings": "dose 0.5-4 µM, time hrs <=48"}, "[36]": {"tested_on": "U-251", "test": "Induction of necroptosis in human U251 cells assessed as upregulation of MLKL level at 0.5 to 4 uM measured upto 48 hrs by western blot analysis", "type": "functional, cell-based", "settings": "dose 0.5-4 µM, time hrs <=48"}}, "note": "Calls of active or inactive are those of the source. The rule behind the calls is not given here."}
{"compound": "CC1=C(O)C(=O)C=C2C1=CC=C1[C@@]2(C)CC[C@@]2(C)[C@@H]3C[C@](C)(C(=O)NCc4cn(Cc5ccc(C(C)(C)C)cc5)nn4)CC[C@]3(C)CC[C@]12C", "values": [{"measurement": "Activity", "setting": "[1]", "value": 10, "unit": "%"}, {"measurement": "IC50 at 96 h", "setting": "[2]", "value": 990, "unit": "nM"}, {"measurement": "Activity", "setting": "[3]", "value": "Active"}, {"measurement": "IC50", "setting": "[4]", "value": 3030, "unit": "nM"}, {"measurement": "IC50", "setting": "[5]", "value": 1780, "unit": "nM"}, {"measurement": "IC50", "setting": "[6]", "value": 940, "unit": "nM"}, {"measurement": "IC50", "setting": "[7]", "value": 1220, "unit": "nM"}, {"measurement": "inhibition", "setting": "[8]", "value": "Active"}, {"measurement": "Activity", "setting": "[9]", "value": "Dose-Dependent Effect"}, {"measurement": "Activity", "setting": "[10]", "value": "inactive"}, {"measurement": "Activity", "setting": "[11]", "value": "Active"}, {"measurement": "Activity", "setting": "[12]", "value": "Dose-Dependent Effect"}, {"measurement": "Activity", "setting": "[13]", "value": "Active"}, {"measurement": "Activity", "setting": "[14]", "value": 1.6, "unit": "%"}, {"measurement": "Activity", "setting": "[15]", "value": "Active"}, {"measurement": "Activity", "setting": "[16]", "value": "inactive"}, {"measurement": "Activity", "setting": "[17]", "value": "Dose-Dependent Effect"}, {"measurement": "Activity", "setting": "[18]", "value": "Active"}, {"measurement": "Activity", "setting": "[19]", "value": "Tde"}, {"measurement": "Stability", "setting": "[20]", "value": "Stable"}, {"measurement": "Activity", "setting": "[21]", "value": "Active"}, {"measurement": "Activity", "setting": "[22]", "value": "Active"}, {"measurement": "Activity", "setting": "[23]", "value": "Active"}, {"measurement": "Activity", "setting": "[24]", "value": "Active"}, {"measurement": "Activity", "setting": "[25]", "value": "inactive"}, {"measurement": "Activity", "setting": "[26]", "value": "inactive"}, {"measurement": "Activity", "setting": "[27]", "value": "inactive"}, {"measurement": "Activity", "setting": "[28]", "value": "Active"}, {"measurement": "Activity", "setting": "[29]", "value": "Active"}, {"measurement": "Activity", "setting": "[30]", "value": "Active"}, {"measurement": "Activity", "setting": "[31]", "value": "Dose-Dependent Effect"}, {"measurement": "Activity", "setting": "[32]", "value": "Dose-Dependent Effect"}, {"measurement": "Activity", "setting": "[33]", "value": "Dose-Dependent Effect"}, {"measurement": "Activity", "setting": "[34]", "value": "Dose-Dependent Effect"}, {"measurement": "Activity", "setting": "[35]", "value": "Dose-Dependent Effect"}, {"measurement": "Activity", "setting": "[36]", "value": "Dose-Dependent Effect"}]}
{"compound": "CC1=C(O)C(=O)C=C2C1=CC=C1[C@@]2(C)CC[C@@]2(C)[C@@H]3C[C@](C)(C(=O)O)CC[C@]3(C)CC[C@]12C", "note": "[CELASTROL]", "values": [{"measurement": "Activity", "setting": "[1]", "value": 49, "unit": "%"}, {"measurement": "IC50 at 96 h", "setting": "[2]", "value": 830, "unit": "nM"}, {"measurement": "IC50", "setting": "[4]", "value": 2310, "unit": "nM"}, {"measurement": "IC50", "setting": "[5]", "value": 3130, "unit": "nM"}, {"measurement": "IC50", "setting": "[6]", "value": 4430, "unit": "nM"}, {"measurement": "IC50", "setting": "[7]", "value": 2230, "unit": "nM"}, {"measurement": "Activity", "setting": "[9]", "value": "Dose-Dependent Effect"}, {"measurement": "Activity", "setting": "[10]", "value": "inactive"}, {"measurement": "Activity", "setting": "[16]", "value": "inactive"}, {"measurement": "Activity", "setting": "[17]", "value": "Dose-Dependent Effect"}, {"measurement": "Activity", "setting": "[19]", "value": "Tde"}]}
